Consider three molecules from PMC10785772 (Science translational medicine, 2023).

≈ marks a conversion by molar mass, not a printed value. Where two headings read alike, the source gives them in different places. A value given as a limit tells only on which side of the number the result lay.

The assay relates to E. coli strain NDM-1 (ATCC:BAA-2471). As to the kind of experiment: MIC against multidrug-resistant sepsis-model strain. Format: cell-based.

Take colistin: the MIC was 2.5 µg/mL.

The molecule `O=C(O)c1cn(C2CC2)c2cc(N3CCNCC3)c(F)cc2c1=O` [ciprofloxacin] yielded a minimal inhibitory concentration (MIC) (Escherichia coli, BAA2471) of more than 32 µg/mL.

For the molecule `C[C@@H](O)[C@H]1C(=O)N2C(C(=O)O)=C(SCCN=CN)C[C@H]12` [imipenem], the minimum inhibitory concentration (MIC) (Escherichia coli, BAA2471) stood at 32 µg/mL (≈ 107 µM).
